Peptide text beside a SMILES is read from it. * marks the point of attachment. Carboxymethyl = O=C(O)C*

One experiment addresses T1, Tyrosine-protein phosphatase non-receptor type 1 (Homo sapiens, UniProt P18031).
T1 sequence (P18031 whole entry): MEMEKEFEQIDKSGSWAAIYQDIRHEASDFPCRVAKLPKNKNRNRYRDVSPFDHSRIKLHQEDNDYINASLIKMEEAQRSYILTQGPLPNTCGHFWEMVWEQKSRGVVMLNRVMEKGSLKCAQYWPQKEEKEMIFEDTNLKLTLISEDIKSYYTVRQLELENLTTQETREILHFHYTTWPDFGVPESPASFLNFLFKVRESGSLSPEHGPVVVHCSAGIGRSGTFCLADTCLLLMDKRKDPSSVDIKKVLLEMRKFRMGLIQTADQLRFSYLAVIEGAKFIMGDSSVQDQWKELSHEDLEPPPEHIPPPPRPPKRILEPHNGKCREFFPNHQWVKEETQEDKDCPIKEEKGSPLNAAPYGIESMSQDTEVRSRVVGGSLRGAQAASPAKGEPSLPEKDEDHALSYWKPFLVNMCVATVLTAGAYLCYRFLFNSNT
Put plainly: Tested for binding affinity towards Protein-tyrosine Phosphatase 1B. Further details: species or system Rattus norvegicus.
Usually IC50 stands for the midpoint of a concentration-inhibition curve. A low value points to greater potency. Regarding `CC(=O)N[C@@H](CC(=O)O)C(=O)N[C@@H](C)C(=O)N[C@@H](CC(=O)O)C(=O)N[C@@H](CCC(=O)O)C(=O)N[C@@H](Cc1ccc(OCC(=O)O)cc1)C(=O)N[C@@H](CC(C)C)C(N)=O` (Ac-DADEY(Carboxymethyl)L-NH2), the IC50 was found to be 1200 µM. Consider `CC(=O)N[C@@H](CC(=O)O)C(=O)N[C@@H](C)C(=O)N[C@@H](CC(=O)O)C(=O)N[C@@H](CCC(=O)O)C(=O)N[C@@H](Cc1ccc(C(C(=O)O)C(=O)O)cc1)C(=O)N[C@@H](CC(C)C)C(N)=O` (HELM PEPTIDE1{[ac].D.A.D.E.[O=C(O)C(C(=O)O)c1ccc(C[C@H](N[*:1])C(=O)[*:2])cc1].L.[am]}$$$$V2.0), for which the half-inhibitory concentration (IC50) stood at 1500 µM. The same measure, in the same setting: in the case of `CC(=O)N[C@@H](CC(=O)O)C(=O)N[C@@H](C)C(=O)N[C@@H](CC(=O)O)C(=O)N[C@@H](CCC(=O)O)C(=O)N[C@@H](Cc1ccc(C(F)(C(=O)O)C(=O)O)cc1)C(=O)N[C@@H](CC(C)C)C(N)=O` (HELM PEPTIDE1{[ac].D.A.D.E.[O=C(O)C(F)(C(=O)O)c1ccc(C[C@H](N[*:1])C(=O)[*:2])cc1].L.[am]}$$$$V2.0) it was 430 µM; in that of `CC(=O)N[C@@H](CC(=O)O)C(=O)N[C@@H](C)C(=O)N[C@@H](CC(=O)O)C(=O)N[C@@H](CCC(=O)O)C(=O)N[C@@H](Cc1ccc(C(F)(F)C(=O)O)cc1)C(=O)N[C@@H](CC(C)C)C(N)=O` (HELM PEPTIDE1{[ac].D.A.D.E.[O=C(O)C(F)(F)c1ccc(C[C@H](N[*:1])C(=O)[*:2])cc1].L.[am]}$$$$V2.0), 650 µM; in that of `CC(=O)N[C@@H](CC(=O)O)C(=O)N[C@@H](C)C(=O)N[C@@H](CC(=O)O)C(=O)N[C@@H](CCC(=O)O)C(=O)N[C@@H](Cc1ccc(OCC(=O)O)c(C(=O)O)c1)C(=O)N[C@@H](CC(C)C)C(N)=O` (HELM PEPTIDE1{[ac].D.A.D.E.[O=C(O)COc1ccc(C[C@H](N[*:1])C(=O)[*:2])cc1C(=O)O].L.[am]}$$$$V2.0), 19 µM. Same read-out and setting: the figure for `CC(=O)N[C@@H](CC(=O)O)C(=O)N[C@@H](C)C(=O)N[C@@H](CC(=O)O)C(=O)N[C@@H](CCC(=O)O)C(=O)N[C@@H](Cc1ccc(OCC(=O)O)c(OCC(=O)O)c1)C(=O)N[C@@H](CC(C)C)C(N)=O` (HELM PEPTIDE1{[ac].D.A.D.E.[O=C(O)COc1ccc(C[C@H](N[*:1])C(=O)[*:2])cc1OCC(=O)O].L.[am]}$$$$V2.0) is 800 µM; for `CC(=O)N[C@@H](CC(=O)O)C(=O)N[C@@H](C)C(=O)N[C@@H](CC(=O)O)C(=O)N[C@@H](CCC(=O)O)C(=O)N[C@@H](Cc1ccc(CC(=O)O)c(C(=O)O)c1)C(=O)N[C@@H](CC(C)C)C(N)=O` (HELM PEPTIDE1{[ac].D.A.D.E.[O=C(O)Cc1ccc(C[C@H](N[*:1])C(=O)[*:2])cc1C(=O)O].L.[am]}$$$$V2.0) it is 3700 µM; for `CC(=O)N[C@@H](CC(=O)O)C(=O)N[C@@H](C)C(=O)N[C@@H](CC(=O)O)C(=O)N[C@@H](CCC(=O)O)C(=O)N[C@@H](Cc1ccc(CC(=O)O)c(O)c1)C(=O)N[C@@H](CC(C)C)C(N)=O` (HELM PEPTIDE1{[ac].D.A.D.E.[O=C(O)Cc1ccc(C[C@H](N[*:1])C(=O)[*:2])cc1O].L.[am]}$$$$V2.0) it is 13000 µM. `CC(=O)N[C@@H](CC(=O)O)C(=O)N[C@@H](C)C(=O)N[C@@H](CC(=O)O)C(=O)N[C@@H](CCC(=O)O)C(=O)N[C@@H](Cc1ccc(CC(=O)O)cc1)C(=O)N[C@@H](CC(C)C)C(N)=O` (HELM PEPTIDE1{[ac].D.A.D.E.[O=C(O)Cc1ccc(C[C@H](N[*:1])C(=O)[*:2])cc1].L.[am]}$$$$V2.0) had an IC50 of 2500 µM. On the same count and under the same terms, in the case of `CC(=O)N[C@@H](CC(=O)O)C(=O)N[C@@H](C)C(=O)N[C@@H](CC(=O)O)C(=O)N[C@@H](CCC(=O)O)C(=O)N[C@@H](Cc1ccc(O)c(C(=O)O)c1)C(=O)N[C@@H](CC(C)C)C(N)=O` (HELM PEPTIDE1{[ac].D.A.D.E.[O=C(O)c1cc(C[C@H](N[*:1])C(=O)[*:2])ccc1O].L.[am]}$$$$V2.0) it was 4600 µM. On the same count and under the same terms, in the case of `CC(=O)N[C@@H](CC(=O)O)C(=O)N[C@@H](C)C(=O)N[C@@H](CC(=O)O)C(=O)N[C@@H](CCC(=O)O)C(=O)N[C@@H](Cc1ccc(C(=O)O)c(O)c1)C(=O)N[C@@H](CC(C)C)C(N)=O` (HELM PEPTIDE1{[ac].D.A.D.E.[O=C(O)c1ccc(C[C@H](N[*:1])C(=O)[*:2])cc1O].L.[am]}$$$$V2.0) it was 5300 µM; in that of `CC(=O)N[C@@H](CC(=O)O)C(=O)N[C@@H](C)C(=O)N[C@@H](CC(=O)O)C(=O)N[C@@H](CCC(=O)O)C(=O)N[C@@H](Cc1ccc(C(=O)O)cc1)C(=O)N[C@@H](CC(C)C)C(N)=O` (HELM PEPTIDE1{[ac].D.A.D.E.[O=C(O)c1ccc(C[C@H](N[*:1])C(=O)[*:2])cc1].L.[am]}$$$$V2.0), 4400 µM. The same measure, in the same setting: the figure for `CC(=O)N[C@@H](CC(=O)O)C(=O)N[C@@H](C)C(=O)N[C@@H](CC(=O)O)C(=O)N[C@@H](CCC(=O)O)C(=O)N[C@@H](Cc1ccc(OP(=O)(O)O)cc1)C(=O)N[C@@H](CC(C)C)C(N)=O` (HELM PEPTIDE1{[ac].D.A.D.E.[O=C([C@H](Cc1ccc(OP(=O)(O)O)cc1)N[*:1])[*:2]].L.[am]}$$$$V2.0) is 3.2 µM.

In a further experiment the target is T2, Growth factor receptor-bound protein 2 (Homo sapiens, UniProt P62993). Put plainly: Inhibition of Growth factor receptor bound protein 2 SH2 domain binding in plasmon resonance assay.
T2 sequence (P62993 whole entry, the tested form may be a part): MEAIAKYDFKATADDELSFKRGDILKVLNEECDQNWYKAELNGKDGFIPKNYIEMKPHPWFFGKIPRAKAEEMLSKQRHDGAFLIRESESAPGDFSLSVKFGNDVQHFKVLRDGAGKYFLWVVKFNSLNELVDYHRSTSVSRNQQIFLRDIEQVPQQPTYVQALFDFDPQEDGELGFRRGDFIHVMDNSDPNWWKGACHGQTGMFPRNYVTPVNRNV
Consider `NC(=O)C[C@H](NC(=O)C1(NC(=O)[C@H](Cc2ccc(C(F)(F)C(=O)O)cc2)NC(=O)C(=O)O)CCCCC1)C(=O)NCCCc1cccc2ccccc12`, for which the IC50 was 2 µM. For the compound `NC(=O)C[C@H](NC(=O)C1(NC(=O)[C@H](Cc2ccc(OCC(=O)O)cc2)NC(=O)C(=O)O)CCCCC1)C(=O)NCCCc1cccc2ccccc12`, the half-maximal inhibitory concentration (IC50) came to 15 µM. `NC(=O)C[C@H](NC(=O)C1(NC(=O)[C@H](Cc2ccc(CC(=O)O)cc2)NC(=O)C(=O)O)CCCCC1)C(=O)NCCCc1cccc2ccccc12` had an IC50 of 0.6 µM. In the case of `NC(=O)C[C@H](NC(=O)C1(NC(=O)[C@H](Cc2ccc(OCC(=O)O)c(OCC(=O)O)c2)NC(=O)C(=O)O)CCCCC1)C(=O)NCCCc1cccc2ccccc12`, the IC50 was above 100 µM.

A further experiment has as its target T2, Growth factor receptor-bound protein 2. Put plainly: Inhibition of Growth factor receptor bound protein 2 SH2 domain binding in ELISA. (In an ELISA, binding on a coated surface is turned into a signal by an enzyme label.)
In the case of `NC(=O)C[C@H](NC(=O)C1(NC(=O)[C@H](Cc2ccc(O)c(C(=O)O)c2)NC(=O)C(=O)O)CCCCC1)C(=O)NCCCc1cccc2ccccc12`, the IC50 is above 100 µM. Same read-out and setting: in the case of `NC(=O)C[C@H](NC(=O)C1(NC(=O)[C@H](Cc2ccc(C(=O)O)c(O)c2)NC(=O)C(=O)O)CCCCC1)C(=O)NCCCc1cccc2ccccc12` it was 50 µM.
